Results as given in patent US20140030350A1, “Drug Delivery Systems” (BIOCOMPATIBLES UK LIMITED, priority 2011, published 2014).

Test: UV/Vis scan of DTT effect on doxorubicin over time
Assay type: physicochemical
Settings: high concentration of DTT, 17 hours
Description: Diothiothreitol (DTT) is a well known mild disulfide reducing agent and is used to maintain disulfide groups in their reduced thiol state. […] A high concentration of DTT was added to doxorubicin and was scanned at 1 hour time points using a UV/Vis spectrophotometer.

Change to the absorbance of doxorubicin on exposure to DTT: very little change
Structure (SMILES): COc1cccc2c1C(=O)c1c(O)c3c(c(O)c1C2=O)C[C@@](O)(C(=O)CO)C[C@@H]3O[C@H]1C[C@H](N)[C@H](O)[C@H](C)O1 [doxorubicin]
